Laboratory results as given in patent publication US12139520B2 (priority 2020, dated 2024).
Bridge positions count the residues as written; N and C are the ends. Square brackets hold non-standard residues; d marks the D form. Peptide text beside a SMILES is read from it. Hyp = O=C(O)[C@@H]1C[C@@H](O)CN1; Cit = NC(=O)NCCC[C@H](N)C(=O)O

Assays:
[1] = Physical stability of peptide analogues (Thioflavin T fibrillation); format: physicochemical; details: maximum ThT signal normalized between hAMY maximum and buffer background; 40° C., shaking, four days; pH 7 per table title
Method in brief: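 Samples are stressed at 40 °C for four days, being shaken at 700 rpm before each 10-min fluorescence reading of 4 μM Thioflavin T. Buffers were pH 4 acetate or pH 7 phosphate. Reported values are smoothed maximum ThT signals as a percentage of the hAMY-to-background range.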

[2] = target: hAM1 receptor (Homo sapiens, UniProt O60895+Q16602); experiment: cAMP assay for in vitro receptor activation, hAM1-R; format: cell-based; details: cAMP assay, hAM1 receptor; read-out: hAM1R EC50
Method in brief: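 Receptor activation, read as cAMP, was assessed in thawed cells of a monoclonal hAM1-overexpressing stable line, plated at 8000 cells/well in DPBS supplemented with 0.05% casein and 0.5 mM IBMX.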

Sequence of hAM1 receptor (Q16602 23-461): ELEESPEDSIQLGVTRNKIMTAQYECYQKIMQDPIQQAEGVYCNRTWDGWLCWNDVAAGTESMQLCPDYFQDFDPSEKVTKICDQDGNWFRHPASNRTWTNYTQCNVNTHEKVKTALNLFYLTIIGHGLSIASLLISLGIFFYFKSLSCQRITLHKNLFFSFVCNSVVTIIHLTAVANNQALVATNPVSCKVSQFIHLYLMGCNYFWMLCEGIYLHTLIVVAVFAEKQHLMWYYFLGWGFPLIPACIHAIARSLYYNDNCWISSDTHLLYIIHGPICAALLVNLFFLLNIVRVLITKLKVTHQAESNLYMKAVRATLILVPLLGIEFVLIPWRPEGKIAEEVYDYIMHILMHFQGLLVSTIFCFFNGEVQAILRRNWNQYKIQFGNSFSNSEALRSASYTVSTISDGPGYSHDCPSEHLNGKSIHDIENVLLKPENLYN
Sequence of hAM1 receptor (O60895 43-175 partner): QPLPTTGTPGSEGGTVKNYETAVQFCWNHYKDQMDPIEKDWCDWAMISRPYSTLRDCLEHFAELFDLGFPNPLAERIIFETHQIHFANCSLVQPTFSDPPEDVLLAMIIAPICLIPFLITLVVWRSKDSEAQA

SMILES	Max ThT signal (%) [1]	EC50 [2]
CC[C@H](C)[C@H](NC(=O)[C@H](CCC(N)=O)NC(=O)[C@H](Cc1c[nH]cn1)NC(=O)[C@H](C)NC(=O)[C@H](CC(C)C)NC(=O)[C@H](Cc1c[nH]c2ccccc12)NC(=O)[C@H](CCC(N)=O)NC(=O)[C@@H](NC(=O)[C@@H](NC(=O)[C@@H]1CSSC[C@H](NC(=O)CN)C(=O)N[C@@H](CCCNC(=N)N)C(=O)N[C@@H]([C@@H](C)O)C(=O)NCC(=O)N[C@@H]([C@@H](C)O)C(=O)N1)[C@@H](C)O)C(C)C)C(=O)N[C@@H](Cc1ccc(O)cc1)C(=O)N[C@@H](CCC(N)=O)C(=O)N[C@@H](Cc1ccccc1)C(=O)N[C@H](C(=O)N[C@@H](CC(=O)O)C(=O)N[C@@H](CCCCN)C(=O)N[C@@H](CC(=O)O)C(=O)N[C@@H](CCCCN)C(=O)N[C@@H](CC(=O)O)C(=O)N[C@@H](CC(N)=O)C(=O)N[C@H](C(=O)N[C@@H](C)C(=O)N1CCC[C@H]1C(=O)N[C@@H](CCCNC(=N)N)C(=O)N[C@@H](CO)C(=O)N[C@@H](CCCCN)C(=O)N[C@H](C(=O)NCC(=O)N1CCC[C@H]1C(=O)N[C@@H](CCC(N)=O)C(=O)NCC(=O)N[C@@H](Cc1ccc(O)cc1)C(N)=O)C(C)C)C(C)C)[C@@H](C)O [compound 344] (H-GCRTGTCTVQWLAHQIYQFTDKDKDNVAPRSKVGPQGY-NH2; disulfide 2-7; N-terminus assumed)	13.350%	> 5 µM
CC[C@H](C)[C@H](NC(=O)[C@H](CCC(N)=O)NC(=O)[C@H](Cc1c[nH]cn1)NC(=O)[C@H](C)NC(=O)[C@H](CC(C)C)NC(=O)[C@H](CCCNC(N)=O)NC(=O)[C@H](CCC(N)=O)NC(=O)[C@@H](NC(=O)[C@@H](NC(=O)[C@@H]1CSSC[C@H](NC(=O)CN)C(=O)N[C@@H](CCCNC(=N)N)C(=O)N[C@@H](Cc2c[nH]c3ccccc23)C(=O)NCC(=O)N[C@@H]([C@@H](C)O)C(=O)N1)[C@@H](C)O)C(C)C)C(=O)N[C@@H](Cc1ccc(O)cc1)C(=O)N[C@@H](CCC(N)=O)C(=O)N[C@@H](Cc1ccccc1)C(=O)N[C@H](C(=O)N[C@@H](CC(=O)O)C(=O)N[C@@H](CCCCN)C(=O)N[C@@H](CC(=O)O)C(=O)N[C@@H](CCCCN)C(=O)N[C@@H](CC(=O)O)C(=O)N[C@@H](CC(N)=O)C(=O)N[C@H](C(=O)N[C@@H](C)C(=O)N1CCC[C@H]1C(=O)N[C@@H](CCCNC(=N)N)C(=O)N[C@@H](CO)C(=O)N[C@@H](CCCCN)C(=O)N[C@H](C(=O)N[C@@H](CO)C(=O)N1CCC[C@H]1C(=O)N[C@@H](CCC(N)=O)C(=O)N[C@H](C(=O)N1C[C@H](O)C[C@H]1C(N)=O)[C@@H](C)O)[C@@H](C)CC)C(C)C)[C@@H](C)O [compound 296] (H-GCRWGTCTVQ[Cit]LAHQIYQFTDKDKDNVAPRSKISPQT[Hyp]-NH2; disulfide 2-7; N-terminus assumed)	26.050%	> 5 µM
CC[C@H](C)[C@H](NC(=O)[C@H](CCC(N)=O)NC(=O)[C@H](Cc1c[nH]cn1)NC(=O)[C@H](C)NC(=O)[C@H](CC(C)C)NC(=O)[C@H](CCCNC(=N)N)NC(=O)[C@H](CCC(N)=O)NC(=O)[C@@H](NC(=O)[C@@H](NC(=O)[C@@H]1CSSC[C@H](NC(=O)CN)C(=O)N[C@@H](CCCNC(=N)N)C(=O)N[C@@H]([C@@H](C)O)C(=O)NCC(=O)N[C@@H]([C@@H](C)O)C(=O)N1)[C@@H](C)O)C(C)C)C(=O)N[C@@H](C)C(=O)N[C@@H](CCC(N)=O)C(=O)N[C@@H](Cc1ccccc1)C(=O)N[C@H](C(=O)N[C@@H](CC(=O)O)C(=O)N[C@@H](CCCCN)C(=O)N[C@@H](Cc1ccccc1)C(=O)N[C@@H](CCCCN)C(=O)N[C@@H](CC(=O)O)C(=O)N[C@@H](CC(N)=O)C(=O)N[C@H](C(=O)N[C@@H](C)C(=O)N1CCC[C@H]1C(=O)N[C@@H](CCCNC(=N)N)C(=O)N[C@@H](CO)C(=O)N[C@@H](CCCCN)C(=O)N[C@H](C(=O)N[C@@H](CO)C(=O)N1CCC[C@H]1C(=O)N[C@@H](CCC(N)=O)C(=O)N[C@H](C(=O)N1C[C@H](O)C[C@H]1C(N)=O)[C@@H](C)O)[C@@H](C)CC)C(C)C)[C@@H](C)O [compound 196] (H-GCRTGTCTVQRLAHQIAQFTDKFKDNVAPRSKISPQT[Hyp]-NH2; disulfide 2-7; N-terminus assumed)	0.500%	> 5 µM
